Several values for one entry are separate records, joined by “and”; a condition that tells them apart may be missing. Equal entries are not always repeated.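 How tested: cells in 96-well plates exposed to compound for 48 hours at five concentrations. At the GI50, growth is halved. TGI: concentration producing complete growth inhibition.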
Assays:
Assay in all cases: inhibition of tumour cell growth, NCI panel, 48 h
K-562 leukemia = test system: K-562 leukemia
HOP-62 NSCLC = test system: HOP-62 NSCLC
SF-539 CNS = test system: SF-539 CNS
NCI-H522 lung = test system: NCI-H522 lung
ACHN renal = test system: ACHN renal
HOP-92 NSCLC = test system: HOP-92 NSCLC
U251 CNS = test system: U251 CNS
OVCAR-5 ovarian = test system: OVCAR-5 ovarian
SF-295 CNS = test system: SF-295 CNS
CCRF-CEM leukemia = test system: CCRF-CEM leukemia

Compound	TGI (K-562 leukemia)	TGI (HOP-62 NSCLC)	TGI (SF-539 CNS)	TGI (NCI-H522 lung)	TGI (ACHN renal)	TGI (HOP-92 NSCLC)	TGI (U251 CNS)	TGI (OVCAR-5 ovarian)	TGI (SF-295 CNS)	TGI (CCRF-CEM leukemia)	GI50 (CCRF-CEM leukemia)	GI50 (SF-539 CNS)	GI50 (NCI-H522 lung)	GI50 (ACHN renal)	GI50 (SF-295 CNS)	GI50 (K-562 leukemia)	GI50 (HOP-62 NSCLC)	GI50 (HOP-92 NSCLC)	GI50 (U251 CNS)	GI50 (OVCAR-5 ovarian)
CC1=C(C(=O)Nc2ccccc2C)C(c2ccccc2C)C(C(=O)Nc2ccccc2C)=C(C)N1	69.3 µM	62.8 µM	> 10 µM	29.9 µM	29.5 µM	29.4 µM	40.3 µM	66.3 µM	44.2 µM											
CCSC(=O)C1(C)OC2CCCCC2C1=O (centres undefined)	> 100 µM	> 100 µM	> 100 µM	> 100 µM	> 100 µM		> 100 µM			> 100 µM										
COc1cc2c3cc1Oc1c(OC)c(OC)cc4c1C(Cc1ccc(cc1)Oc1cc(ccc1O)CC3N(C)CC2)N(C)CC4 (centres undefined)		34.7 µM	23.6 µM and 3.81 µM	14.2 µM and 20.5 µM	46.1 µM and 15.8 µM	38.7 µM and 41.3 µM	23.8 µM and 30.5 µM	67.4 µM and 29.6 µM	28.9 µM and 21.4 µM	58.3 µM and 24.7 µM	6.96 µM and 2.78 µM	11.4 µM and 1.56 µM	1.57 µM and 4.86 µM	14.5 µM and 4.72 µM	15.4 µM and 7.68 µM					
CC1CC(=O)c2c(ccc3c2C(=O)c2cccc(O)c2C3=O)C1 (centres undefined)	10.6 µM		29.5 µM	12.7 µM		13.1 µM	26.5 µM	36.1 µM	23.2 µM	7.97 µM										
COc1ccc(C=C2C(=O)NC(=O)NC2=O)cc1OCc1ccccc1			47.4 µg/mL									20.3 µg/mL		36.9 µg/mL	32.5 µg/mL	30.8 µg/mL	36.9 µg/mL	57.2 µg/mL	31.2 µg/mL	
COc1cc(/C=C\c2ccc(Cl)cc2)cc(OC)c1OC	> 44.2 µM	> 100 µM	0.564 µM	0.355 µM	> 100 µM		> 100 µM	> 31.6 µM	0.218 µM	3.96 µM										
N#CC(C(=O)CCC(=O)Nc1ccc(Cl)c(Cl)c1)c1ccc(Cl)cc1 (centres undefined)	90.5 µM	> 100 µM	> 100 µM		> 100 µM	> 100 µM	> 100 µM	> 100 µM	> 100 µM											
O=C1NC(SCc2ccc(F)cc2)=N/C1=C/c1cccc(OCc2ccc(Cl)cc2)c1	> 100 µM		72.2 µM	> 100 µM	3.87 µM	> 100 µM	19.6 µM	> 100 µM	> 100 µM	> 100 µM	64.2 µM	4.87 µM	57.3 µM	1.93 µM	4.97 µM	28.8 µM		67.7 µM	3.83 µM	> 100 µM
O=C(CN1C(=O)S/C(=C\C(Cl)=C\c2ccccc2)C1=O)NCCCn1ccnc1	> 100 µM	22.5 µM	5.27 µM	5.15 µM	5.22 µM	4.46 µM	8.01 µM	6.47 µM	24.4 µM			2.08 µM	2.02 µM	1.99 µM	10 µM	2.17 µM	3.45 µM	1.76 µM	2.54 µM	2.4 µM
O=c1[nH]cnc2c1ncn2CCCCO	> 100 µM	> 100 µM	> 100 µM		> 100 µM	> 100 µM		> 100 µM	> 100 µM	> 100 µM										
COC(=O)C1C(/C=C/c2ccoc2)ON2CCC[C@@H]12 (some centres undefined)		> 100 µM	> 100 µM	> 100 µM	> 100 µM	> 100 µM	> 100 µM	> 100 µM	> 100 µM											
COC1OC(C(C)O)C2OC(C)(C)OC12 (centres undefined)	> 100 µM	> 100 µM	> 100 µM	> 100 µM	> 100 µM		> 100 µM	> 100 µM	> 100 µM	> 100 µM										
COc1cc(-c2oc3c(OC)c(O)cc(O)c3c(=O)c2OC)ccc1O	> 100 µM		> 50.2 µM	> 37.2 µM	> 71.5 µM	15.5 µM	> 62.5 µM	78.7 µM	76.2 µM	24.9 µM										
COC(=O)c1nc(N)nc(C(=O)OC)c1C(=O)c1ccccc1	> 100 µM		> 100 µM	> 100 µM	> 100 µM	> 100 µM	> 100 µM	> 100 µM	> 100 µM	> 100 µM										
O=S(=O)(N/N=C/c1ccc(Cl)cc1Cl)c1ccccc1	> 100 µM	> 100 µM	> 100 µM		> 100 µM	94.9 µM	> 100 µM	> 100 µM	> 100 µM	> 100 µM										
COC1(Cc2ccccc2)C(=O)c2ccccc2N1C(C)=O (centres undefined)	> 100 µM	> 100 µM	> 100 µM		> 100 µM	> 100 µM	> 100 µM		> 100 µM	> 100 µM										
COc1ccc(CN=C(N)N=C(N)N)cc1OC	> 1000 µM	> 1000 µM	> 1000 µM	> 1000 µM	> 1000 µM		> 1000 µM	> 1000 µM	> 1000 µM			> 1000 µM	714 µM	> 1000 µM	194 µM	362 µM	602 µM		398 µM	> 1000 µM
CCCCCCCCCCCCCCCCCc1nnc(N)o1	> 100 µM	> 100 µM	> 100 µM	> 100 µM	> 100 µM	> 100 µM	> 100 µM	> 100 µM	> 100 µM											
NS(=O)(=O)c1ccc(N2N=C(c3cccs3)CC2c2ccccc2O)cc1 (centres undefined)	15.3 µM	9.46 µM	1.76 µM	1.51 µM	13 µM		3.73 µM	6.11 µM	2.26 µM	> 33.3 µM	1.4 µM	0.706 µM	0.644 µM	2.9 µM	0.829 µM	1.24 µM	2.67 µM		0.998 µM	1.25 µM
COc1cc2c(cc1OCCCCCn1c3ccccc3c3ccccc31)N=C[C@@H]1CCCN1C2=O		3.91 µM	3.37 µM		3.34 µM		3.19 µM	5.49 µM	6.55 µM			1.85 µM		1.74 µM	2.15 µM		1.8 µM		1.59 µM	2.42 µM

— PubChem BioAssay (NCI)
